In US20050282745A1, “Non-mammalian GnRH analogs and uses thereof in regulation of fertility and pregnancy” (priority 2001, published 2005):
Non-standard residues stand in square brackets, D forms with d. Residues, ends and D or L forms follow the SMILES beside them. *: point of attachment. dPhe(4-Cl) = N[C@H](Cc1ccc(Cl)cc1)C(=O)O; d2Nal = N[C@H](Cc1ccc2ccccc2c1)C(=O)O; Lys(iPr) = CC(C)NCCCC[C@H](N)C(=O)O; d3Pal = N[C@H](Cc1cccnc1)C(=O)O; pGlu = O=C1CC[C@@H](C(=O)O)N1; Nicotinoyl = O=C(c1cccnc1)*

Assays:
[1] = test system: chorionic peptidase-1 (C-ase-1); experiment: C-ase-1 enzyme activity assay, competition for degradation of GnRH; conditions: for relative potency of inhibition of C-ase-1 degradation of GnRH, compared to GnRH: Example V; for Ki: competition for degradation of mammalian GnRH
Method: (§1) Using the incubation system developed for the C-ase-1 activity, the degradation of each analog was tested. […] These studies were done using the C-ase-1 enzyme activity assay as described previously. […] The product formed was calculated by subtraction, and its inverse plotted against the inverse of the original substrate concentrations to determine the nature of the competition. The Ki was to be determined by plotting the inverse of the product that formed verses the inhibitor used.
(§2) The concentration of the product of the degraded GnRH was quantified by subtracting the remaining mammalian GnRH from the starting concentrations of mammalian GnRH. […] The Ks for the degradation of mammalian GnRH was calculated from the x axis intercept using Lineweaver-Burke double reciprocal plot of the concentration of the product formed versus the concentration of the substrate used.
(§3) The reaction was stopped by heating at 85° C. for 10 minutes. The remaining GnRH was determined using a specific radioimmunoassay. The formation of product, i.e., the N-terminal nonapeptide of GnRH, was calculated by subtraction and its inverse was plotted versus the inverse of the initial substrate to determine the Ks of the reaction. […] The relative potency of each analog was compared.
(§4) Using the incubation system developed for the C-ase-1 activity, the degradation of each analog was studied. […] The inverse of the product was plotted against the inverse of the original substrate concentrations to determine Ks of the competition. The Ki was determined by plotting the inverse of the product formed verses the inhibitor used.

[2] = test system: chorionic peptidase-1 (C-ase-1)
Method: as §1, §2, §3, §4

pregnant baboons = experiment: Pregnant baboons, mini-pump days 14-21 post ovulation; type: in vivo, baboon
Method: Mammalian GnRH analogs, ZOLADEX™ (Goserelin acetate) and Organon 30276, were administered to pregnant baboons via mini-pump on days 14 through 21 post ovulation. The hormonal release and pregnancy outcome was compared to saline treated controls. […] In a dose-response saline-controlled study using very high doses of mammalian GnRH analog, a small stimulation of hCG in very early pregnancy was observed by the present inventor.

[3] = test system: human placental GnRH receptor; experiment: Placental GnRH receptor binding, 125I-Buserelin label; conditions: for receptor activity/potency compared with GnRH: 125I-Buserelin, Example VI
Method: The newly synthesized non-mammalian GnRH analogs and other commercially available mammalian GnRH analogs were used in placental receptors binding and enzyme stability study described here. […] GnRH receptors were purified from the membrane fractions from placentas. The purification procedure for the placental GnRH receptor was performed using a modification of the method described by Bramley et al., which reference is specifically incorporated herein by reference for the purpose. Addition of enzyme inhibitors for the endogenous C-ase-1 were used as well as agents for receptor stabilization. Initially, receptor-binding assays using ^125I-Buserelin as label were performed. The competitive binding of each of the analogs was studied over a dose range of 10^−11 to 10^−6 M. Incubation was at room temperature and receptor bound label was precipitated with polyethylene glycol. Specific and non-specific binding was determined. The data was subjected to Scatchard analysis. The non-mammalian GnRH analogs' ability to bind to the placental GnRH receptor was compared to that for synthetic mammalian GnRH (SEQ ID NO: 5), Buserelin (SEQ ID NO: 10) and other mammalian analogs. […] This way, the receptor affinity for that analog could be precisely determined. Receptors from three different term placentas were used to study each of these analogs. […] Bramley T A, McPhie C A, Menzies G S 1994 Human placental gonadotropin-releasing hormone (GnRH) binding sites: 111. […] Placenta 15:733-745.
In these and additional studies, placental GnRH receptors were purified from human term placentas after homogenization in 40 mM Tris (pH 7.4) and filtered through cheesecloth, followed by an initial centrifugation at 1,000×g for 10 minutes. The resulting supernatant was, again, centrifuged at 35,000×g for 30 minutes and the membrane pellet was collected and resuspended in Tris buffer with 0.3 M sucrose. The protein concentration was determined. Membranes were stored frozen at −20 C until use. Before use, placental membranes were diluted to 5,000 μg/mL with Tris buffer containing 0.5% BSA and 50 U/mL bacitracin. […] Following incubation at room temperature for 4 hours, the bound and free hormones were separated using polyethylene glycol precipitation, followed by centrifugation. The binding affinity for each GnRH isoform or analog was calculated using the double reciprocal plot of bound versus free ligand. Each study was done using three different human term placental tissues.
Receptor assays were performed by incubating human term placental GnRH receptors with varying concentrations of GnRH or its analogs in the presence of ^125I-Buserelin. The reaction was stopped and the bound hormone precipitated with polyethylene glycol.

placental homogenate = experiment: Degradation in whole placental homogenate; type: in vitro ADME, human
Method: Studies using whole placental homogenate were also performed. […] The competition by the newly synthesized non-mammalian GnRH analogs as compared to mammalian GnRH (SEQ ID NO: 5) was then studied to confirm the C-ase-1 studies above. […] (FIG. 3)
The stability of these analogs in the present of whole placental homogenates was examined. The ethylamide derivative has a slowed degradation rate as compared to GnRH, but can be degraded.

CC(=O)N[C@H](Cc1ccc2ccccc2c1)C(=O)N[C@H](Cc1ccc(Cl)cc1)C(=O)N[C@H](Cc1cccnc1)C(=O)N[C@@H](CO)C(=O)N[C@@H](CCCCNC(=O)c1cccnc1)C(=O)N[C@H](CCCCNC(=O)c1cccnc1)C(=O)N[C@@H](CC(C)C)C(=O)N[C@@H](CCCCNC(C)C)C(=O)N1CCC[C@H]1C(=O)N[C@H](C)C(N)=O [Antide] (Ac-[d2Nal][dPhe(4-Cl)][d3Pal]SK(Nicotinoyl)[dK](Nicotinoyl)L[Lys(iPr)]P[dA]-NH2; N-terminus and C-terminus assumed)
relative potency of inhibition of C-ase-1 degradation of GnRH, compared to GnRH [1]: 0.6
potency as competitor compared with salmon or chicken II GnRHs ([1]; Example VII): two-fold more potent
potency as competitor for GnRH degradation by C-ase-1 compared with GnRH ([1]; Example VII): three-fold less potent
degradation by / competition for C-ase-1, in words [2]: degraded with reduced activity

CCNC(=O)[C@@H]1CCCN1C(=O)[C@H](Cc1ccc(O)cc1)NC(=O)[C@H](Cc1c[nH]c2ccccc12)NC(=O)[C@@H](CCCNC(=N)N)NC(=O)[C@H](Cc1c[nH]cn1)NC(=O)[C@H](CO)NC(=O)[C@H](Cc1c[nH]c2ccccc12)NC(=O)[C@H](Cc1c[nH]cn1)NC(=O)[C@@H]1CCC(=O)N1 [D-Arg-chicken II GnRH-ethylamide, D-Arg (6)-chicken II GnRH-des-Gly (10)-ethylamide] ([pGlu]HWSH[dR]WYP-NHEt)
Ki ([1]; Example III): > 200 nM

CCNC(=O)[C@@H]1CCCN1C(=O)[C@H](CCCNC(=N)N)NC(=O)[C@H](CC(C)C)NC(=O)[C@@H](CC(C)C)NC(=O)[C@H](Cc1ccc(O)cc1)NC(=O)[C@H](CO)NC(=O)[C@H](Cc1c[nH]c2ccccc12)NC(=O)[C@H](Cc1c[nH]cn1)NC(=O)[C@@H]1CCC(=O)N1 [MAMMALIAN D-LEU (6), EA (10), des-Gly^10, D-Leu^6-GnRH-ethylamide]
degradation by / competition for C-ase-1, in words [2]: potent competitive inhibitors

CC(C)C[C@H](NC(=O)[C@@H](COC(C)(C)C)NC(=O)[C@H](Cc1ccc(O)cc1)NC(=O)[C@H](CO)NC(=O)[C@H](Cc1c[nH]c2ccccc12)NC(=O)[C@H](Cc1cnc[nH]1)NC(=O)[C@@H]1CCC(=O)N1)C(=O)N[C@@H](CCCNC(=N)N)C(=O)N1CCC[C@H]1C(=O)NNC(N)=O [ZOLADEX, Goserelin acetate]
abortions (pregnant baboons; in vivo): not consistently effected
pregnancy outcome (pregnant baboons; in vivo): in most animals pregnancy outcomes were jeopardized
CG and progesterone (pregnant baboons; vs saline controls): decreased

CCNC(=O)[C@@H]1CCCN1C(=O)[C@H](CCCNC(=N)N)NC(=O)[C@H](CC(C)C)NC(=O)[C@@H](Cc1c[nH]c2ccccc12)NC(=O)[C@H](Cc1ccc(O)cc1)NC(=O)[C@H](CO)NC(=O)[C@H](Cc1c[nH]c2ccccc12)NC(=O)[C@H](Cc1c[nH]cn1)NC(=O)[C@@H]1CCC(=O)N1 [^6D-Trp-GnRH-^10 ethylamide]
receptor activity/potency compared with GnRH [3]: twice as active

CCNC(=O)[C@@H]1CCCN1C(=O)[C@H](CCCNC(=N)N)NC(=O)[C@H](CC(C)C)NC(=O)[C@@H](Cc1cn(Cc2ccccc2)cn1)NC(=O)[C@H](Cc1ccc(O)cc1)NC(=O)[C@H](CO)NC(=O)[C@H](Cc1c[nH]c2ccccc12)NC(=O)[C@H](Cc1cnc[nH]1)NC(=O)[C@@H]1CCC(=O)N1 [^6Im-btl-D-His-GnRH^10 ethylamide, des-Gly^10-Im-Btl-D-His^6-GnRH-ethylamide]
receptor activity/potency compared with GnRH [3]: half the potency
receptor activity/potency compared with GnRH ([3]; listed as 6Im-btl-D-His-GnRH-^10 ethylamide): half the potency
receptor activity/potency compared with GnRH ([3]; listed as Im-Btl-His(6) analog): reduced receptor potency
degradation by / competition for C-ase-1, in words [2]: resistant to degradation

CCNC(=O)[C@@H]1CCCN1C(=O)[C@H](Cc1ccc(O)cc1)NC(=O)[C@H](Cc1c[nH]c2ccccc12)NC(=O)CNC(=O)[C@H](Cc1c[nH]cn1)NC(=O)[C@H](CO)NC(=O)[C@H](Cc1c[nH]c2ccccc12)NC(=O)[C@H](Cc1c[nH]cn1)NC(=O)[C@@H]1CCC(=O)N1 [chicken II GnRH ethylamide, chicken II GnRH-^10 ethylamide] ([pGlu]HWSHGWYP-NHEt)
stability in whole placental homogenates (placental homogenate): more stable than the mammalian GnRH analogs
receptor activity/potency compared with GnRH [3]: 33 fold

NC(=O)CNC(=O)[C@@H]1CCCN1C(=O)[C@H](Cc1ccc(O)cc1)NC(=O)[C@H](Cc1c[nH]c2ccccc12)NC(=O)CNC(=O)[C@H](Cc1c[nH]cn1)NC(=O)[C@H](CO)NC(=O)[C@H](Cc1c[nH]c2ccccc12)NC(=O)[C@H](Cc1c[nH]cn1)NC(=O)[C@@H]1CCC(=O)N1 [chicken II GnRH] ([pGlu]HWSHGWYPG-NH2; C-terminus assumed)
stability in whole placental homogenates (placental homogenate): more stable than the mammalian GnRH analogs
degradation/competition relative to mammalian GnRH ([1]; Example III): one-sixth
relative potency of inhibition of C-ase-1 degradation of GnRH, compared to GnRH [1]: 0.2
Ki ([1]; Example III): 200 nM
receptor binding potency compared with chicken II GnRH isoform or Buserelin ([3]; Buserelin label, Example II): equipotent to Buserelin
receptor binding potency compared with mammalian GnRH ([3]; Buserelin label, Example II): three-fold more potent

CCNC(=O)[C@@H]1CCCN1C(=O)[C@H](CCCNC(=N)N)NC(=O)[C@H](CC(C)C)NC(=O)CNC(=O)[C@H](Cc1ccc(O)cc1)NC(=O)[C@H](CO)NC(=O)[C@H](Cc1c[nH]c2ccccc12)NC(=O)[C@H](Cc1c[nH]cn1)NC(=O)[C@@H]1CCC(=O)N1 [des-Gly^10-GnRH-ethylamide] ([pGlu]HWSYGLRP-NHEt)
degradation by / competition for C-ase-1, in words [2]: potent competitive inhibitors

CC(C)C[C@H](NC(=O)[C@H](CO)NC(=O)[C@H](Cc1ccc(O)cc1)NC(=O)[C@H](Cc1c[nH]cn1)NC(=O)[C@@H]1CCC(=O)N1)C(=O)N[C@@H](CCC(=O)O)C(=O)N[C@@H](Cc1c[nH]c2ccccc12)C(=O)N[C@@H](CCCCN)C(=O)N1CCC[C@H]1C(=O)NCC(N)=O [lamprey GnRH] ([pGlu]HYSLEWKPG-NH2)
relative potency of inhibition of C-ase-1 degradation of GnRH, compared to GnRH [1]: 1.5
potency as competitor for GnRH degradation by C-ase-1 compared with GnRH ([1]; Example VII): as or even more potent than GnRH

CC(C)C[C@H](NC(=O)[C@H](Cc1c[nH]c2ccccc12)NC(=O)CNC(=O)[C@H](Cc1ccc(O)cc1)NC(=O)[C@H](CO)NC(=O)[C@H](Cc1c[nH]c2ccccc12)NC(=O)[C@H](Cc1c[nH]cn1)NC(=O)[C@@H]1CCC(=O)N1)C(=O)N1CCC[C@H]1C(=O)NCC(N)=O [salmon GnRH] ([pGlu]HWSYGWLPG-NH2)
relative potency of inhibition of C-ase-1 degradation of GnRH, compared to GnRH [1]: 0.2

^9OH-Pro-GnRH
relative potency of inhibition of C-ase-1 degradation of GnRH, compared to GnRH [1]: 1.5
potency as competitor for GnRH degradation by C-ase-1 compared with GnRH ([1]; Example VII): as or even more potent than GnRH

chicken II GnRH-^10 aza-Gly-amide
degradation by / competition for C-ase-1, in words [2]: resistant to degradation
